From patent EP2119770B1, “Production of alpha-oxyfunctionalized carbonyl compounds” (priority 2008, dated 2009)

Key:
Assay type in all cases: biochemical
[1] = biological target: T1, Gox1615 (Gluconobacter oxydans, UniProt Q5FQJ0); experiment: Enzyme activity assay (rate of NAD(P)H decrease at 340 nm), Gox1615; details: 10 mM substrate; for Specific Activity: Tab. 5, Gox1615, cofactor NADPH, pH 7.0, 30 °C; for Activity: Table 3, Gox1615, K-phosphate buffer pH 7.0, 0.05 mM NAD(P)H, 30 °C
T1 sequence (Q5FQJ0 1-332): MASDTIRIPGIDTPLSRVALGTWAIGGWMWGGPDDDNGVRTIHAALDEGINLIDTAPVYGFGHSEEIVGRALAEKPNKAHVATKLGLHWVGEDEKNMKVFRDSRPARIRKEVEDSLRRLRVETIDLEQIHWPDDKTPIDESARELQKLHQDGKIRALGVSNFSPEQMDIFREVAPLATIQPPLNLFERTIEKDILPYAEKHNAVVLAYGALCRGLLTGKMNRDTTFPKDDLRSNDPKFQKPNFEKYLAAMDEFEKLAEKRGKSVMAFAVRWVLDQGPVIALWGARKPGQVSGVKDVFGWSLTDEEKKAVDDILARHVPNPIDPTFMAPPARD
Outline: (§1)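 Purified enzymes assayed at 30 °C in 40 mM potassium phosphate pH 7.0 with 10 mM substrate and NAD(P)H (0.025 mM, or 0.05 mM in the standard mixture), started by adding enzyme or substrate. Activity followed as the rate of NAD(P)H decrease at 340 nm; one unit = 1 µmol pyridine nucleotide converted per min; protein measured by Bradford.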

[2] = biological target: T2, Gox2684 (Gluconobacter oxydans, UniProt Q5HXK5); experiment: Enzyme activity assay (rate of NAD(P)H decrease at 340 nm), Gox2684; details: for Specific Activities: Tab. 8, GOX2684, cofactor NADPH, 10 mM substrate, pH 7.0, 30 °C; for activities: Gox2684, substrates with highest activities
T2 sequence (Q5HXK5 1-357): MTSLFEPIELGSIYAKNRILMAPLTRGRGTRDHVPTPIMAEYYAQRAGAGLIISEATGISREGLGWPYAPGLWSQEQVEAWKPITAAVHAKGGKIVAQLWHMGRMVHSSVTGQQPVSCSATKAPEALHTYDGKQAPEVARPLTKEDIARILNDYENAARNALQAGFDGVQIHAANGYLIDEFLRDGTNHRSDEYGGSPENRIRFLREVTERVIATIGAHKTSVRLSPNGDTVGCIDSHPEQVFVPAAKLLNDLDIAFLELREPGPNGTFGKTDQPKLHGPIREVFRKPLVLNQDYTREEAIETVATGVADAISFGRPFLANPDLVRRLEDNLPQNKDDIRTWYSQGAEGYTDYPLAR
Outline: as §1

[3] = biological target: Gox0644 (Gluconobacter oxydans, UniProt Q5FT75); experiment: Regioselectivity of bioconversion, product determined by NMR, Gox0644; details: bioconversion with Gox1122 cofactor regeneration, NMR analysis
From the text: Cofactor regeneration: A prerequisite for the production of α-hydroxycarbonyl compounds is the regeneration of the expensive coenzymes and the stability of the protein catalysts. By coupling two coenzyme-dependent enzyme reactions, NADPH can be continuously regenerated. […] For this purpose, we used a combined enzymatic reaction between the NADPH-dependent oxidoreductases that form α-hydroxycarbonyl compounds and the aldehyde dehydrogenase GOX1122 (see Schweiger, P. et al., J. Mol. Microbiol. Biotechnol. 13:147-155 (2007)) that produces the reduced cofactor in the course of acetaldehyde oxidation. […] The biotransformation was performed in a batch process (total volume 2.5 ml 40 mM potassium phosphate buffer pH 7). 30 µg of purified Gox1122 and of NADPH-dependent oxidoreductases and 50 µM NADPH were added. The substrate concentration in the beginning was 20 mM 2,3-pentanedione and 20 mM acetaldehyde. Fresh substrates were added every 60 min (20 mM each).
NMR: The 2.5 ml bioconversion was extracted with two times equal volume of d-chloroform. ^1H and ^13C NMR spectra were recorded on a DPX 300 Spectrometer (300 MHz) and referenced to the CDCl3 internal standard. Chemical samples analyzed with Bruker NMR Suite 2.5 software constructed final product structures.
2.7 Regioselectivity of GOX0644 and GOX1615: Tab. […] Tab. 10: Summary of Regioselectivity
5 ml bioconversions for determining regioselectivity were set up with 2 mg of proteins Gox0644 and Gox1122, 40 mM potassium phosphate buffer, pH 7.0, 50 µM NADPH. Substrates (20 mM 2,3 pentanedione and acetaldehyde) were added every 30 min. The reaction was followed for 3 h to produce quantities between 40-60 mg of product (hydroxy-pentanone).

Structure (SMILES)	Specific Activity [1]	Activity [1]	Specific Activities [2]	Product (regioselective reduction) [3]	Product (regioselective reduction) ([3]; listed as 2,3 pentanedione)	activities [2]
CCC(=O)C(C)=O [2,3-pentanedione]	6.2 U/mg	6.2 U/mg	0.6 U/mg	2-hydroxy-pentane-3-one	2-hydroxy-pentan-3-one	–
O=CC(=O)c1ccccc1 [phenylglyoxal]	19.1 U/mg	19.1 U/mg	2.1 U/mg	2-hydroxy-2-phenylacetaldehyde	–	2.1 U/mg protein
CCC(=O)C(=O)CC [3,4-hexanedione]	2 U/mg	2.0 U/mg	0.6 U/mg	–	–	–
CCCC(=O)C(C)=O [2,3-hexanedione]	6.5 U/mg	6.5 U/mg	2.3 U/mg	2-hydroxy-hexane-3-one	–	2.3 U/mg protein
CC(=O)C=O [methylglyoxal]	19.3 U/mg	19.3 U/mg	1.4 U/mg	–	–	–
